Read-outs that look alike come from different tables or passages of the source.
Columns and labels:
[1] = tested on: inositol-1,4,5-triphosphate 3 kinase (GgIP3K-A); assay: Inositol-1,4,5-triphosphate 3 kinase activity assay (Mayr et al.); assay type: biochemical; conditions: FIG. 6
Experimental: An assay was performed as described in Mayr et al., (2005) J. Biol. Chem. 280: 13229-13240, incorporated herein by reference. […] Inhibition of the kinase activity may be important in HIV.

[2] = target: purified prokaryotic 20S proteasome (Methanosarcina thermophila, UniProt Q9P992); assay: Chymotrypsin-like activity of purified 20S proteasome (fluorogenic substrate Suc-Leu-Leu-Val-Tyr-AMC); assay type: biochemical; conditions: for inhibition at 100 µM: read-out: inhibition of proteasomal chymotrypsin-like activity
Sequence of purified prokaryotic 20S proteasome (Q9P992 10-210): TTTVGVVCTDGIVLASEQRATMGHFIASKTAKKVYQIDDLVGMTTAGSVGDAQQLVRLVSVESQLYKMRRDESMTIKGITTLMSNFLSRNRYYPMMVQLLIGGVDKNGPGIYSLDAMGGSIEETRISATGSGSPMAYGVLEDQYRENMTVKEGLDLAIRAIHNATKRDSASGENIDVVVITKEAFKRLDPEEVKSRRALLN
Sequence of purified prokaryotic 20S proteasome (Q59565 whole entry, further chain): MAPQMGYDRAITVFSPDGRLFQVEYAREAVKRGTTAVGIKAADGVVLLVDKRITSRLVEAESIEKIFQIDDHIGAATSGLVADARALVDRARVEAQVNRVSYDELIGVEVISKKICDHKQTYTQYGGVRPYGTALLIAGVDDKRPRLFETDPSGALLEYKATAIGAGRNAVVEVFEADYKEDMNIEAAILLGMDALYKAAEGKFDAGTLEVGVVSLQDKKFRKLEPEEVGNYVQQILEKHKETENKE
Experimental: This example describes the how to analyze the inhibitory effect of isolated fractions of mate tea in vitro, using purified 20S proteasome. The chymotrypsin-like activity of purified 20S proteasome was measured as previously described (Nam et al., (2001) J. Biol. Chem. 276, 13322-13330). Briefly, purified prokaryotic 20S proteasome (0.5 μg) was incubated with 20 μM fluorogenic peptide substrate, Suc-Leu-Leu-Val-Tyr-AMC for 30 min at 37° C. in 100 μl of assay buffer (50 mM Tris-HCl, pH 7.5), with or without a mate tea fraction at indicated concentrations. After incubation, production of hydrolyzed 7-amido-4-methyl-coumarin (AMC) groups was measured using a multi-well plate VersaFluor™ Fluorometer with an excitation filter of 380 nm and an emission filter of 460 nm (Bio-Rad).
The quinic acid esters resemble the proteasome inhibitor (−)-epigallocatechin gallate [(−)-EGCG] in that they contain hydroxylated aromatic carboxylic acids esterified to a polyhydroxylated aliphatic ring (FIG. 3). Based upon this similarity, and the previous finding that epigallocatechin gallate is an inhibitor of proteasomes (Ren et al., (2000) Oncogene 19, 1419-1427; Nam et al., (2001) J. Biol. Chem. 276, 13322-13330)), the ability of fractions T-2, T-5, and T-6 to inhibit proteasome function was assessed. To determine the ability of quinic acid esters to inhibit proteasome activity, a fluorescent substrate activity assay was performed with purified 20S proteasome. Epigallocatechin gallate (EGCG, Sigma Chemical Company, St Louis, Mo.) was used as a positive control for proteasome inhibition. To ensure complete inhibition of the proteasome, 100 μM EGCG was used. The compound 3,5-dicaffeoylquinic acid (3,5-DCQ) was tested against proteasome activity in three different concentrations: 20, 100, and 200 μg/ml, which correspond to 37, 183, and 366 μM respectively (FIG. 4).

SVR cells = assay: SVR cell proliferation assay; assay type: cell-based; conditions: 10 mg/ml, 72 hours exposure, Coulter Counter
Experimental: The filtered aqueous extract was lyophilized to a dry powder, which was dissolved in distilled water and analyzed by HPLC, and 5 fractions were collected. HPLC fractions were lyophilized. Each fraction was reconstituted into 10 mg/ml solutions, and the ability to inhibit proliferation of SVR cells was tested.
SVR cells (1×10^4) were plated for 24 hours in a 24-well plate. The media was then changed to DMEM containing purified extract at a concentration of 10 mg/ml. Cells were exposed to drug for 72 hours and were counted with a Coulter Counter (Coulter, Hialeah, Fla.) according to the method of Lamontagne et al (LaMontagne et al., (2000) Am. J. Pathol. 157, 1937-1945). […] In order to determine the component of mate tea responsible, the aqueous extract was fractionated by HPLC, and the ability of the fractions to inhibit SVR cell proliferation was assessed. […] The structures of T-2, T-5, and T-6 were elucidated by proton NMR and mass spectroscopy (FIG. 1). […] The NMR spectra of the compounds are shown below.

Jurkat T cells = assay: Cell cycle analysis of Jurkat T cells by flow cytometry (propidium iodide); assay type: cell-based; conditions: for arrest of Jurkat cells in G2/M phase: 2 μg/ml for 24 h; for increase of G2/M population: 20 μg/ml for 24 h
Experimental: To investigate the inhibitory effect of the fractions on cell cycle, Jurkat cells exposed to each fraction were analyzed by flow cytometry. Cell cycle analysis based on DNA content was performed as described previously (See Nam et al., 2001). The cell cycle distribution is shown as the percentage of cells containing G1, S, G2, and M DNA judged by propidium iodide staining.
The proteasome-inhibitory potencies of 3,5-DCQ and neochlorogenic acid were identified as being associated with growth-inhibitory activity in vivo, based on treating Jurkat T cells with each compound at a concentration of 2 or 20 μg/ml for 24 h. After treatment, the cells were harvested and assayed by flow cytometry. […] In contrast, neochlorogenic acid at the same concentrations had no effects.

[3] = target: T1, 26S proteasome in Jurkat T cell extracts (Homo sapiens, UniProt P28074); assay: Proteasome chymotrypsin-like activity in Jurkat T cell extracts; assay type: biochemical; conditions: 60 min at 37° C.
T1 construct: Whole cell extracts (20 μg) of Jurkat T cells; endogenous in cells; host or cells: Jurkat T cells (whole cell extract)
T1 sequence (P28074 60-263): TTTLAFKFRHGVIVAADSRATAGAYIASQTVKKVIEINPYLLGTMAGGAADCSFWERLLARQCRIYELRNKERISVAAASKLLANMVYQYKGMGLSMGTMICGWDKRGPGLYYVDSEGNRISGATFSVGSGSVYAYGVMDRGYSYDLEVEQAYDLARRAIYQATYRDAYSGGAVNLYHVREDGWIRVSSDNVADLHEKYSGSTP
Experimental: This example describes the how to analyze the inhibitory effect of isolated fractions of mate tea in vivo, using cell extracts of the Jurkat cancer cell line. Whole cell extracts (20 μg) of Jurkat T cells were incubated for 60 min at 37° C. with 20 μM of fluorogenic peptide substrate Suc-Leu-Leu-Val-Tyr-AMC in […] of the assay buffer, with or without a mate tea fraction at indicated concentrations. The hydrolyzed AMCs were quantified as described above.
The abilities of 3,5-DCQ and neochlorogenic acid to inhibit the 26S proteasome activity in Jurkat cell extracts was tested.

[4] = at 20 μg/ml (37 μM 3,5-DCQ; 56 μM neochlorogenic acid)
[5] = at 100 μg/ml (183 μM 3,5-DCQ; 282 μM neochlorogenic acid)
[6] = at 100 μM, purified 20S proteasome

CC(C)(C)c1cc(CCC(=O)OCC(COC(=O)CCc2cc(C(C)(C)C)c(O)c(C(C)(C)C)c2)(COC(=O)CCc2cc(C(C)(C)C)c(O)c(C(C)(C)C)c2)COC(=O)CCc2cc(C(C)(C)C)c(O)c(C(C)(C)C)c2)cc(C(C)(C)C)c1O [PTTC, Pentaerythritol tetrakis (3,5-di-tert-butyl-4-hydroxyhydrocinnamate), reference compound]
inhibition of IP-3 kinase activity (qualitative) [1]: inhibit | activity against proteasomes (qualitative) ([2]; used as a control, chymotrypsin-like proteasome activity (FIG. 5)): activity against proteasomes

O=C(C=Cc1ccc(O)c(O)c1)OC1CC(O)(C(=O)O)CC(OC(=O)C=Cc2ccc(O)c(O)c2)C1O (stereo not shown) [3,5-DCQ, 3,5-Dicaffeoylquinic acid]
inhibition of SVR cell proliferation (SVR cells): most potent inhibitory effects | arrest of Jurkat cells in G2/M phase (Jurkat T cells): very slight arrest | increase of G2/M population (Jurkat T cells): ~10% | inhibition at 20 µg/mL [3, 4]: ~50% | inhibition at 100 µg/mL [3, 5]: ~85% | inhibition at 100 µM [2, 6]: 60%

O=C(/C=C/c1ccc(O)c(O)c1)O[C@@H]1[C@H](O)C[C@@](O)(C(=O)O)C[C@H]1OC(=O)/C=C/c1ccc(O)c(O)c1 (stereo in doubt) [T-6, 3,4-Dicaffeoylquinic acid]
inhibition of SVR cell proliferation (SVR cells): most potent inhibitory effects | inhibition of proteasomal chymotrypsin-like activity [2, 6]: 40%

O=C(C=Cc1ccc(O)c(O)c1)OC1CC(O)(C(=O)O)CC(O)C1O (stereo not shown) [neochlorogenic acid, 5-Caffeoylquinic acid]
inhibition of SVR cell proliferation (SVR cells): most potent inhibitory effects | arrest of Jurkat cells in G2/M phase (Jurkat T cells): no effects | increase of G2/M population (Jurkat T cells): no effects | inhibition of 26S proteasome activity in Jurkat cell extracts [3, 4]: ~30% | inhibition of 26S proteasome activity in Jurkat cell extracts [3, 5]: ~75% | inhibition at 100 µM [2]: 21%

Reference: patent US8809283B2, “Proteasome inhibitors and uses thereof” (Natuderm, LLC, priority 2005, dated 2014)
